Values quoted from earlier work in patent US20050065125A1, “2-alkylidene-19-nor-vitamin D derivatives for the treatment of osteopenia or male osteoporosis” (Pfizer Inc, priority 2003, published 2005).

Details: chronic mode, 7 days, rats

Compound | Bone calcium mobilization (serum calcium) activity relative to the native hormone 1,25-(OH)2D3
C=C1[C@H](O)CC(=C/C=C2\CCC[C@]3(C)[C@@H]([C@H](C)CCCC(C)(C)O)CC[C@@H]23)C[C@H]1O [2-Methylene-19-Nor-1,25-(OH)2D3, 1α,25-dihydroxy-2-methylene-19-nor-vitamin D3] | 10-100 times
C=C1[C@H](O)CC(=C/C=C2\CCC[C@]3(C)[C@@H]([C@@H](C)CCCC(C)(C)O)CC[C@@H]23)C[C@H]1O [2-Methylene-19-Nor-20S-1,25-(OH)2D3, (20S)-1α,25-dihydroxy-2-methylene-19-nor-vitamin D3] | at least 10 times
